Reference: US20230202981A1, “NOVEL SMALL MOLECULES FOR TARGETED DEGRADATION OF UNTARGETABLE KRAS IN CANCER THERAPY” (Pillai Universal LLC, priority 2020, published 2023)
Like-named read-outs stand apart in the source and are kept apart here.

Legend:
[1] = system: KRAS downstream signaling proteins in wild type KRAS; assay: Downstream signaling proteins, wild type KRAS (protein and gene expression analysis); format: cell-based
Pharmacokinetics in mice = format: in vivo
Oral bioavailability = format: in vivo
[2] = Crossing blood-brain barrier: pharmacokinetics in brain regions; format: in vivo; parameters: AUC0-t_D: concentration or dose not given beside the values
KRAS mutant cell lines = assay: Apoptosis by Annexin V-FITC/PI staining and flow cytometry; format: cell-based; settings: mutant cancer cells, 24 h
Protocol: FIG. 6 depicts the compound I induces apoptosis in KRAS-dependent cancer cell line • FIG. 6(A)—Morphological changes after 24 h exposure to compound I ([…]) were captured by an Epifluroscent microscope with ×100 magnification, scale bar: 20 μm. • FIG. 6(B)—Cells were treated with 250 nm of Compound I for 24 h and apoptosis levels were quantitatively measured with flow cytometry after staining cells with Annexin V/propidium iodide (PI), and triplicate data were plotted as bar chart diagram. • FIG. 6(C)—Representative western blot data of different apoptosis-related protein (PARP, Bcl-2, and Bax) confirmed induction of cellular apoptosis after treatment ([…]) for 24 h. […]
Compound 1 was subjected to cancer induced model and determined whether the observed growth inhibition was due to apoptosis or necrosis. […] Next, applying standard Annex in V-FITC/PI staining followed by flow cytometry analysis, the percentage of apoptotic and necrotic cells were quantitatively measured. […] Furthermore, to examine compound-induced apoptosis in KRAS mutant cells, the expression levels of several well-characterized apoptotic proteins were analyzed by western blotting. […] The densitometry quantitation of the ratio of Bax/Bcl2 protein expression and PARP cleavage relative to GAPHD is shown as a bar chart in […].

[3] = system: GTP-KRAS in KRAS G12C, G12V, G12D, and G13D mutant cells; assay: RAS activation assay, formation of GTP-bound KRAS in mutant cells; format: cell-based; settings: 24 h
Text: Actually, mutant KRAS would interfere the balance between GEFs and GAPs, resulting in locking in the active GTP-bound KRAS state and aberrant stimulation of its downstream signaling.

[4] = system: CRAF, AKT and ERK phosphorylation in KRAS mutant cell lines; assay: Phosphorylation of KRAS downstream signaling pathway; format: cell-based; settings: 48 h, time-dependent
Protocol: Active KRAS stimulates downstream signaling pathways, especially for RAF/MEK/ERK and […] pathway, and then induces cell proliferation. Therefore, to investigate the effect of Compound 1, the phosphorylation levels of CRAF, AKT and ERK in cell lines was examined to monitor the impact of KRAS signaling by treatment with this compound for 48 h.

KRAS = KRAS (Homo sapiens, UniProt P01116); assay: Binding to KRAS in vitro
Chain of KRAS (P01116 1-188 isoform P01116-2): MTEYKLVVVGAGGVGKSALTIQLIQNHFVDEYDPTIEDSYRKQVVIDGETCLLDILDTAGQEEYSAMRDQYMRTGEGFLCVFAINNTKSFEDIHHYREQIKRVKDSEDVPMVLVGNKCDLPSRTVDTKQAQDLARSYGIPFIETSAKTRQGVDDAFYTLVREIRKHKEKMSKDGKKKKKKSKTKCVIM
Text: (§1) The present invention is aimed to invent powerful, therapeutic small molecules that could target mutant KRAS on its active sites. Here we identified a small molecule, compound I, that binds the GTP/GDP-binding pocket of KRAS. For this purpose we studied a strong correlation of measurement among a larger panel of tumor cell lines expressing KRAS mutation and analyses the potency to inhibit the tumor cell growth activated RAS. […] Therefore, compound I may be considered as a potential KRAS inhibitor for treatment of cancer cells carrying KRAS oncogene.
From the above biological examples it is clearly inferred that the Compound 1 as a new class of KRAS that selectively targets the GTP/GDP binding pocket. […] Compound 1 to 5-induced hyperactivation of mutant KRAS facilitates apoptotic cell death in mutant KRAS cancer cells. Combining the results with detailed structural analysis, we are able to describe key ligand-receptor interactions that correlate with activity. Thus, showing that our screening techniques were very successful at generating KRAS binders that have effects on signaling in cells. […] Therefore, compound Compound 1 is a promising hit for the development of novel non-covalent KRAS inhibitors. The development of this new class of anticancer drug offers a potentially effective strategy for the treatment of cancer with KRAS mutation and/or mutant KRAS-driven cancer. […]

p53 = assay: Expression of p53 and apoptosis-related genes (qRT-PCR); format: cell-based; settings: cancer cells
Protocol: FIG. 11 depicts compound I Targeting p53 (mRNA levels of p53, Puma, and Noxa in cells at 6 hours after compound I treatment. mRNA levels were quantified by qRT-PCR. Data were normalized to GAPDH expression and plotted relative to cells treated with DMSO as control)

BRCA 1/2-deficient cells = assay: Toxicity to BRCA-deficient cells; format: cell-based; settings: including cisplatin-resistant ones
tumor xenograft = assay: Nude mouse xenograft models (EGFR/HER2 study); format: in vivo
Text: The activity of Compound 1 on various mutated EGFRs, HER2, and HER4 were examined. MTT assays, flow cytometry, and Western blotting were used to examine the effects of Compound 1 on with different genetic characteristics and relevant molecular mechanisms. Nude mouse xenograft models with cells were used to evaluate the in vim anti-tumor activity of Compound 1. […] Compound 1 blocked EGFR phosphorylation, thereby down regulating downstream PI3/AKT and MAPK/ERK signaling pathways and inducing G0/G1 arrest in different cells. […] Due to compromised homologous recombination (HR) repair, BRCA 1-and BRCA 2-mutated tumours accumulate DNA damage and genomic rearrangements conducive of tumour progression.

PD-L1 = PD-L1 expression; format: cell-based
Text: as §1

In the case of CCCCc1ncc(C(=O)C2CC=C(C(N)=O)N2)cc1C(=O)OCC (stereo not drawn) [Compound 1], the “expression of KRAS downstream signaling proteins MEK, RAF and PI3K” value [1] is reported as “has not altered the expression”, the pERK level ([1]; control 1.42 ± 0.069) is reported as 1.46 ± 0.23 and the pCRAF level ([1]; control 1.52 ± 0.025) is reported as 1.42 ± 0.25. It also gave a pP13K level ([1]; control 1.85 ± 0.32) of 1.62 ± 0.63, a pAKt level ([1]; control 1.89 ± 0.63) of 1.72 ± 0.14 and a pMEK level ([1]; control 1.96 ± 0.22) of 1.85 ± 0.32. For the same molecule, the T1/2 (Pharmacokinetics in mice) was “T1/2 = 5.8 h (mice)”, the Cmax (Pharmacokinetics in mice; 10 mg/kg b.wt.) was “Cmax = 2.6 μg/mL (10 mg/kg b.wt. mice)” and the T max (Pharmacokinetics in mice; 10 mg/kg b.wt.) was “T max = 2 h (mice 10 mg/kg, b.wt;)”. The “F (Bioavailability)” value (Oral bioavailability) was “F-92% (Bioavailability)”, the AUC0-t_D ([2]; Brainstem) was 85.63 ± 17.43 h × ng/g/mg, h × ng/mL/mg and the MRTQ-t ([2]; Brainstem) was 5.89 ± 0.34 h. The Tmax ([2]; Brainstem) was 1.35 ± 0.33 h, the T½ ([2]; Brainstem) was 1.81 ± 0.23 h and the AUC0-t_D ([2]; Cortex) was 152.08 ± 5.25 h × ng/g/mg, h × ng/mL/mg. It also gave an MRTQ-t ([2]; Cortex) of 6.23 ± 0.65 h, a Tmax ([2]; Cortex) of 1.14 ± 0.09 h and a T½ ([2]; Cortex) of 5.86 ± 2.91 h. The AUC0-t_D ([2]; Hippocampus) was 58.20 ± 15.36 h × ng/g/mg, h × ng/mL/mg, the MRTQ-t ([2]; Hippocampus) was 5.18 ± 0.51 h and the Tmax ([2]; Hippocampus) was 1.25 ± 1.08 h. The T½ ([2]; Hippocampus) was 1.19 ± 0.22 h, the AUC0-t_D ([2]; Hypothalamus) was 59.10 ± 5.06 h × ng/g/mg, h × ng/mL/mg and the MRTQ-t ([2]; Hypothalamus) was 5.25 ± 0.60 h. The Tmax ([2]; Hypothalamus) was 0.54 ± 0.24 h, the T½ ([2]; Hypothalamus) was 1.18 ± 0.26 h and the AUC0-t_D ([2]; Striatum) was 123.81 ± 4.90 h × ng/g/mg, h × ng/mL/mg. For the same molecule, the MRTQ-t ([2]; Striatum) was 6.75 ± 0.68 h, the Tmax ([2]; Striatum) was 0.14 ± 0.09 h and the T½ ([2]; Striatum) was 3.45 ± 0.93 h. For the same molecule, the “apoptosis compared with the untreated cells” value (KRAS mutant cell lines) was “significantly induced apoptosis”, the “formation of GTP-KRAS relative to the total amount of KRAS” value [3] was “selectively inhibit the formation of GTP-KRAS” and the “levels of phosphorylation of CRAF and AKT” value [4] was “reduced the levels of phosphorylation”. The “binding affinity to KRAS” value (KRAS) was “nanomolar binder”, the “binding affinity to KRAS” value (KRAS; listed as Compound I) was “good binding affinity” and the “expression of p53” value (p53) was “upregulating the expression of p53”. For the same molecule, the “toxicity to BRCA 1/2-deficient cells” value (BRCA 1/2-deficient cells) was “specifically toxic”, the tumor growth (tumor xenograft) was “inhibited tumor growth” and the PD-L1 expression (PD-L1) was “suppresses PD-L1 expression”.
